Source: ChEMBL document CHEMBL3621147, “An azumamide C analogue without the zinc-binding functionality” (Medchemcomm, 2014)
The source made the active and inactive calls. No cut-off for these calls is given here.

Assays:
[1] = tested on: EB-3; details: Homo sapiens, at 10 µM
Description: Antiproliferative activity against human EB3 cells at 10 uM incubated for 3 days by MTT assay

[2] = Antiproliferative activity against human EB3 cells assessed as growth inhibition incubated for 3 days by MTT assay; assay type: functional; details: EB-3, 72 h
[3] = target: T1, Histone deacetylase 11 (Homo sapiens, UniProt Q96DB2); assay: Inhibition of human recombinant HDAC11 using Ac-Leu-Gly-Lys (Ac)-AMC substrate incubated for 30 mins by fluorescence assay
T1 sequence (Q96DB2 whole entry): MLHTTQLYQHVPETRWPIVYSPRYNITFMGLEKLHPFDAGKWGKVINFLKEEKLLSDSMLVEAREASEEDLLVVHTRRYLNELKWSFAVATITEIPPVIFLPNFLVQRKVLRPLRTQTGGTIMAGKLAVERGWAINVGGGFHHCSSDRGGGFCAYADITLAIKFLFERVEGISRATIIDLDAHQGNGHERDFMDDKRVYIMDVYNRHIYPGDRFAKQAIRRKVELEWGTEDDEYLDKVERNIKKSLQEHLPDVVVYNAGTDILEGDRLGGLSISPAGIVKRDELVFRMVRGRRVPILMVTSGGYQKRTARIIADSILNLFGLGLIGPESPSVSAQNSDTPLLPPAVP

[4] = target: T2, Histone deacetylase 3/Nuclear receptor corepressor 2 (HDAC3/NCoR2) (Homo sapiens, UniProt O15379); assay: Inhibition of human recombinant HDAC3/NCoR2 using Ac-Leu-Gly-Lys (Ac)-AMC substrate incubated for 45 mins by fluorescence assay based continuous assay protocol; assay type: protein-complex assay
T2 sequence (O15379 whole entry): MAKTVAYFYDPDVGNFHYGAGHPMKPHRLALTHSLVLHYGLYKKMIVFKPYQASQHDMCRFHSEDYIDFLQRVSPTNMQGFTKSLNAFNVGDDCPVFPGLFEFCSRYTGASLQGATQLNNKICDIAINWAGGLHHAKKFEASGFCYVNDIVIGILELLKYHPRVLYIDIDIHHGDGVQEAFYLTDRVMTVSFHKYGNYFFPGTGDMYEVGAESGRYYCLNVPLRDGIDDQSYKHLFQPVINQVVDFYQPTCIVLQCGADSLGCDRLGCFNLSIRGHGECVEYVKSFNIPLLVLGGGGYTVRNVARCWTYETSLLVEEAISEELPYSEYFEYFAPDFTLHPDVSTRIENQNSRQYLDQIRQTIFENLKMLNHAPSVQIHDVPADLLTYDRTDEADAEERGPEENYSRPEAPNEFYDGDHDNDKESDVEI
T2 sequence (Q9Y618 whole entry, further chain): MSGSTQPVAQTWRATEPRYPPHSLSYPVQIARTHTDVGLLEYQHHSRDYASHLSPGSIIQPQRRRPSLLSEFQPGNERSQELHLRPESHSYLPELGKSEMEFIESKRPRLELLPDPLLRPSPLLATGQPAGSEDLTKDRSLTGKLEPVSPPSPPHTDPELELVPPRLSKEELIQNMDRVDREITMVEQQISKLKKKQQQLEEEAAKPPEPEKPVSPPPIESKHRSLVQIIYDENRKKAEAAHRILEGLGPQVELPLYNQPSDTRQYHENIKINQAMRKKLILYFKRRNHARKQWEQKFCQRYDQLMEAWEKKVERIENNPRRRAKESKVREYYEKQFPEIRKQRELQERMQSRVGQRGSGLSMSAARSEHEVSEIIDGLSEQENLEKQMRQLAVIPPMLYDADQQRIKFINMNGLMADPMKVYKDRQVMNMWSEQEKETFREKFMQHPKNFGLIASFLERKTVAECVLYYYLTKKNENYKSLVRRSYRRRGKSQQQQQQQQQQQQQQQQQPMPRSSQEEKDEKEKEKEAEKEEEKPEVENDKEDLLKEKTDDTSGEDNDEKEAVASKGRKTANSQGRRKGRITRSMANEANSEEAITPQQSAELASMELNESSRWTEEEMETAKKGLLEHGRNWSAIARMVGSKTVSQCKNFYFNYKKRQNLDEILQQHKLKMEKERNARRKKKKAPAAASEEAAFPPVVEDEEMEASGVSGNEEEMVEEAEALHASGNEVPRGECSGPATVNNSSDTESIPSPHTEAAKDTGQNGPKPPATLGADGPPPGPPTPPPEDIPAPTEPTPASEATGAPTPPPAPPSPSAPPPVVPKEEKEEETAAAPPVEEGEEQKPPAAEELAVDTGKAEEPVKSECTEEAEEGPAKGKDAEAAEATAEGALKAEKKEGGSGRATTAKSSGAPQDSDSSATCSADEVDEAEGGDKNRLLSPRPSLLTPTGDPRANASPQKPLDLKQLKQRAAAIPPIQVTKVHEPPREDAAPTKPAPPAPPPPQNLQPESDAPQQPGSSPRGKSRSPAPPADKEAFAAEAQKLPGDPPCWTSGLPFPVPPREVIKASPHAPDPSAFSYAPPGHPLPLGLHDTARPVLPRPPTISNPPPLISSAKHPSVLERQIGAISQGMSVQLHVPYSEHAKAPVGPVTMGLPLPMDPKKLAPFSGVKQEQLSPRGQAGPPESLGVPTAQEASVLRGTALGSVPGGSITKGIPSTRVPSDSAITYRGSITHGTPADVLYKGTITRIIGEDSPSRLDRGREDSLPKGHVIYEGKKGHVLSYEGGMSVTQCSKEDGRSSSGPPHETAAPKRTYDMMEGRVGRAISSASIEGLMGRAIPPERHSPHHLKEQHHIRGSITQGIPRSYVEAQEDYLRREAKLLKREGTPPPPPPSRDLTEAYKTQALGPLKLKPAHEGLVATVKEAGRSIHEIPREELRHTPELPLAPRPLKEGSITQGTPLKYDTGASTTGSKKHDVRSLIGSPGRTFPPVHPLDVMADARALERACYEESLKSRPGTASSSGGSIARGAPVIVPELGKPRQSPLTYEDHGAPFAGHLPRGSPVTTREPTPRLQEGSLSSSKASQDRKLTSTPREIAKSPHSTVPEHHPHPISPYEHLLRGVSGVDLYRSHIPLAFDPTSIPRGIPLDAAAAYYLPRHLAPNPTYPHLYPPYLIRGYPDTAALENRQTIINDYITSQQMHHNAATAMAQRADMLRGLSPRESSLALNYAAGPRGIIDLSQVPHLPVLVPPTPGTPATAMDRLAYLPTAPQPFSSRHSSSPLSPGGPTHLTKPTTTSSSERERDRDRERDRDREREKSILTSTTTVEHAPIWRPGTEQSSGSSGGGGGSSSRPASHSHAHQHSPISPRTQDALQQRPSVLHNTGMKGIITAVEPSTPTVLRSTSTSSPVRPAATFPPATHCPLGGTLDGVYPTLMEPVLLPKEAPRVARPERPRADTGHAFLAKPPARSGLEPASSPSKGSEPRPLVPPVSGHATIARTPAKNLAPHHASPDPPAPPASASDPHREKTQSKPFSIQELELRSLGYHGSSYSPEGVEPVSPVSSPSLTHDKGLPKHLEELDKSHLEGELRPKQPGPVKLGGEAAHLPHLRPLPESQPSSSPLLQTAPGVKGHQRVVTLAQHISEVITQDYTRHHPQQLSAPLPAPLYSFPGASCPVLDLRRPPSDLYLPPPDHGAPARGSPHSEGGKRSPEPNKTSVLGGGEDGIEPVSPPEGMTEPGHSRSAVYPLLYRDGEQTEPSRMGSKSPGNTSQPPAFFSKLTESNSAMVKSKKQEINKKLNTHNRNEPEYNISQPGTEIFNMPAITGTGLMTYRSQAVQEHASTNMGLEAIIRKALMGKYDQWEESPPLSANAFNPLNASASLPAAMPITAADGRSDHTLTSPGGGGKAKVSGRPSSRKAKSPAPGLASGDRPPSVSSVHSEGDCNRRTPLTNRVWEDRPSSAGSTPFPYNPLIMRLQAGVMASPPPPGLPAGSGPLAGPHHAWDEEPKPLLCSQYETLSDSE

[5] = target: Histone deacetylase 2 (Homo sapiens, UniProt Q92769); assay: Inhibition of human recombinant HDAC2 using Ac-Leu-Gly-Lys (Ac)-AMC substrate incubated for 30 mins by fluorescence assay
Histone deacetylase 2, sequence (Q92769 whole entry): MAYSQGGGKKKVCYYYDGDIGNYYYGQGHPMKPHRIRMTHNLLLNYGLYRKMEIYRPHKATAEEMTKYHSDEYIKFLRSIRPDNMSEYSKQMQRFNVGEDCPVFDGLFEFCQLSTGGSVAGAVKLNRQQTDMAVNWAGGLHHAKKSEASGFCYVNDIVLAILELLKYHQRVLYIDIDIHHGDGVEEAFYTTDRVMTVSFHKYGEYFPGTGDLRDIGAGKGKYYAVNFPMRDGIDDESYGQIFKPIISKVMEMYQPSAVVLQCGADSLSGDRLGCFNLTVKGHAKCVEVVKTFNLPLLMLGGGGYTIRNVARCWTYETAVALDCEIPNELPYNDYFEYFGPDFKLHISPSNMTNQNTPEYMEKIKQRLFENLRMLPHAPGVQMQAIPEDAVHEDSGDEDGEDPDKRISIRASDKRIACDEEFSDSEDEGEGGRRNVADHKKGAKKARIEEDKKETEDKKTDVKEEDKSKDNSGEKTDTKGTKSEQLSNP

[6] = target: T3, Polyamine deacetylase HDAC10 (Homo sapiens, UniProt Q969S8); assay: Inhibition of human recombinant HDAC10 using Ac-Arg-His-Lys (Ac)-Lys (Ac)-AMC substrate incubated for 30 mins by fluorescence assay
T3 sequence (Q969S8 whole entry): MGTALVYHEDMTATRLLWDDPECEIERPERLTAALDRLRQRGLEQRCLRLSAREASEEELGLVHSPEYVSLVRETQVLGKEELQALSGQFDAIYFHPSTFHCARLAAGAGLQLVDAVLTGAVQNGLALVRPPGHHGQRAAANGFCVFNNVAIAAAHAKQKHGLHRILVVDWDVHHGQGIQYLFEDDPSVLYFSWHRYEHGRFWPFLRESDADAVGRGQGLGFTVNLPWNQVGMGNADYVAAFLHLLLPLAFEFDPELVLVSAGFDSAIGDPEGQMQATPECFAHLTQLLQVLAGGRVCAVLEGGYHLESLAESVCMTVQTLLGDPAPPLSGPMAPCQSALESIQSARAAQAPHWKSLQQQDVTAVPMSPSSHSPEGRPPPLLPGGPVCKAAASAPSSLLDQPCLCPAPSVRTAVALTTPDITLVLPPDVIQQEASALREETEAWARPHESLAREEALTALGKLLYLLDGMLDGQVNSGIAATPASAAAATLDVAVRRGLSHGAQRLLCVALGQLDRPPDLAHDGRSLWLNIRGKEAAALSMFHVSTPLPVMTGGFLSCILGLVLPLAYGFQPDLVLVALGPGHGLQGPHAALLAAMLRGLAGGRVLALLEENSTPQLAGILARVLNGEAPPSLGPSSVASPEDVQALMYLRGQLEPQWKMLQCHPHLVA

[7] = target: T2, Histone deacetylase 3/Nuclear receptor corepressor 2 (HDAC3/NCoR2); assay: Inhibition of human recombinant HDAC3/NCoR2 using Ac-Leu-Gly-Lys (Ac)-AMC substrate incubated for 30 mins by fluorescence assay; assay type: protein-complex assay
[8] = target: Histone deacetylase 1 (Homo sapiens, UniProt Q13547); assay: Inhibition of human recombinant HDAC1 using Ac-Leu-Gly-Lys (Ac)-AMC substrate incubated for 30 mins by fluorescence assay
Histone deacetylase 1, sequence (Q13547 whole entry): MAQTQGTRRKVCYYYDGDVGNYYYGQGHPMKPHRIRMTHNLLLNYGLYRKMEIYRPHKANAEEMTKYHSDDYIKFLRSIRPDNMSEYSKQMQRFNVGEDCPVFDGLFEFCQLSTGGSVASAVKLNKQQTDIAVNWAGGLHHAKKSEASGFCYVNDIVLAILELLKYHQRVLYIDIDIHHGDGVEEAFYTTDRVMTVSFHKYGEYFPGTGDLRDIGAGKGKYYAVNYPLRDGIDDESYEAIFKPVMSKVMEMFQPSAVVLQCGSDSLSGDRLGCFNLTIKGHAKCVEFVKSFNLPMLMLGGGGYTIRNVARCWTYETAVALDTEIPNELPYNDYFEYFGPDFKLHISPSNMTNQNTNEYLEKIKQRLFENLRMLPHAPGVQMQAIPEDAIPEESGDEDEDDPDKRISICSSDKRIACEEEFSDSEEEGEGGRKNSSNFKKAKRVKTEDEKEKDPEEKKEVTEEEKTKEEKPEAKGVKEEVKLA

[9] = target: Histone deacetylase 9 (Homo sapiens) (UniProt Q9UKV0); assay: Inhibition of human recombinant HDAC9 using Ac-Leu-Gly-Lys (Tfa)-AMC substrate incubated for 30 mins by fluorescence assay
[10] = target: T4, Protein deacetylase HDAC6 (Homo sapiens) (UniProt Q9UBN7); assay: Inhibition of human recombinant HDAC6 using Ac-Leu-Gly-Lys (Ac)-AMC substrate incubated for 30 mins by fluorescence assay
T4 sequence (whole entry): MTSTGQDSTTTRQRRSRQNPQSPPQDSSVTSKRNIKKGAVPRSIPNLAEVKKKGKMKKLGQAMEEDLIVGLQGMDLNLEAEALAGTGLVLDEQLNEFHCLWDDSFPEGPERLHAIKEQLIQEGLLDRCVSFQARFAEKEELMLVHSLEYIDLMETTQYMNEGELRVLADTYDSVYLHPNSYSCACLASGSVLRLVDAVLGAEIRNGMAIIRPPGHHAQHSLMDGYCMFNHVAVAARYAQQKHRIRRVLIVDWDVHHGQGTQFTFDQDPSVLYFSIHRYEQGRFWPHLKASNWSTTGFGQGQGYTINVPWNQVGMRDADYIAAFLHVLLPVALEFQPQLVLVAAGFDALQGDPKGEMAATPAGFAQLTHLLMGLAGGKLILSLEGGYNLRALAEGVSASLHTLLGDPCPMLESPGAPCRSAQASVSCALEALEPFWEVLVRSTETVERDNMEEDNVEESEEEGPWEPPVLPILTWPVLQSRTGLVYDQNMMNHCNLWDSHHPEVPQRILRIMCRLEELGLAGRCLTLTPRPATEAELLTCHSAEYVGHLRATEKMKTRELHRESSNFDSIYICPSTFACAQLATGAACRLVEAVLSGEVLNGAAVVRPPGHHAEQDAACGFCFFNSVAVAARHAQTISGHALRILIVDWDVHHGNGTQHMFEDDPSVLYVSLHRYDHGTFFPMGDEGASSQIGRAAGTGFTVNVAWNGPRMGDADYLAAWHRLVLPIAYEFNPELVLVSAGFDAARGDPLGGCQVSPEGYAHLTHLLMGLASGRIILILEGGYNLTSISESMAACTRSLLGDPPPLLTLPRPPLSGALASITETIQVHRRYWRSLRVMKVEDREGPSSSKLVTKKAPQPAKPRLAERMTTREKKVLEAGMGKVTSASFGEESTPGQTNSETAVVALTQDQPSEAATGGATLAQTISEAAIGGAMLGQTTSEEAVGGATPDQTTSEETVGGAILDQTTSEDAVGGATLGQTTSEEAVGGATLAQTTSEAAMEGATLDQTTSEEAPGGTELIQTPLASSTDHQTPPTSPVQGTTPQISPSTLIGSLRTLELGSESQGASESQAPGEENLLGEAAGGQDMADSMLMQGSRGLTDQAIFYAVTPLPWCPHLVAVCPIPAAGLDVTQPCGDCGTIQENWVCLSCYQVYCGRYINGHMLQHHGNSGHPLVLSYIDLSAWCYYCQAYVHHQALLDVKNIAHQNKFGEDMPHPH

[11] = target: T5, Histone deacetylase 8 (Homo sapiens) (UniProt Q9BY41); assay: Inhibition of human recombinant HDAC8 using Ac-Leu-Gly-Lys (Tfa)-AMC substrate incubated for 30 mins by fluorescence assay
T5 sequence (whole entry): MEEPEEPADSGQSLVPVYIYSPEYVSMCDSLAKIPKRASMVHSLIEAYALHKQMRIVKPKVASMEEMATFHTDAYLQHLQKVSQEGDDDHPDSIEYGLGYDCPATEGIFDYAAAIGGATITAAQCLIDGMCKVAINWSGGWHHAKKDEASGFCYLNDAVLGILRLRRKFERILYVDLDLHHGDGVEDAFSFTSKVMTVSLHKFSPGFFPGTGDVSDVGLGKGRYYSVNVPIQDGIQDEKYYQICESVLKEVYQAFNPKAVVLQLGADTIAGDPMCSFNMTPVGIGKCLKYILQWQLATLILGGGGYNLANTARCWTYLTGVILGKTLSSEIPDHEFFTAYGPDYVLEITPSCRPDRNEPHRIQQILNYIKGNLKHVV

[12] = target: Histone deacetylase 4 (Homo sapiens) (UniProt P56524); assay: Inhibition of human recombinant HDAC4 using Ac-Leu-Gly-Lys (Tfa)-AMC substrate incubated for 30 mins by fluorescence assay
[13] = target: Histone deacetylase 5 (Homo sapiens) (UniProt Q9UQL6); assay: Inhibition of human recombinant HDAC5 using Ac-Leu-Gly-Lys (Tfa)-AMC substrate incubated for 30 mins by fluorescence assay
Histone deacetylase 5 (Homo sapiens), sequence (Q9UQL6 whole entry): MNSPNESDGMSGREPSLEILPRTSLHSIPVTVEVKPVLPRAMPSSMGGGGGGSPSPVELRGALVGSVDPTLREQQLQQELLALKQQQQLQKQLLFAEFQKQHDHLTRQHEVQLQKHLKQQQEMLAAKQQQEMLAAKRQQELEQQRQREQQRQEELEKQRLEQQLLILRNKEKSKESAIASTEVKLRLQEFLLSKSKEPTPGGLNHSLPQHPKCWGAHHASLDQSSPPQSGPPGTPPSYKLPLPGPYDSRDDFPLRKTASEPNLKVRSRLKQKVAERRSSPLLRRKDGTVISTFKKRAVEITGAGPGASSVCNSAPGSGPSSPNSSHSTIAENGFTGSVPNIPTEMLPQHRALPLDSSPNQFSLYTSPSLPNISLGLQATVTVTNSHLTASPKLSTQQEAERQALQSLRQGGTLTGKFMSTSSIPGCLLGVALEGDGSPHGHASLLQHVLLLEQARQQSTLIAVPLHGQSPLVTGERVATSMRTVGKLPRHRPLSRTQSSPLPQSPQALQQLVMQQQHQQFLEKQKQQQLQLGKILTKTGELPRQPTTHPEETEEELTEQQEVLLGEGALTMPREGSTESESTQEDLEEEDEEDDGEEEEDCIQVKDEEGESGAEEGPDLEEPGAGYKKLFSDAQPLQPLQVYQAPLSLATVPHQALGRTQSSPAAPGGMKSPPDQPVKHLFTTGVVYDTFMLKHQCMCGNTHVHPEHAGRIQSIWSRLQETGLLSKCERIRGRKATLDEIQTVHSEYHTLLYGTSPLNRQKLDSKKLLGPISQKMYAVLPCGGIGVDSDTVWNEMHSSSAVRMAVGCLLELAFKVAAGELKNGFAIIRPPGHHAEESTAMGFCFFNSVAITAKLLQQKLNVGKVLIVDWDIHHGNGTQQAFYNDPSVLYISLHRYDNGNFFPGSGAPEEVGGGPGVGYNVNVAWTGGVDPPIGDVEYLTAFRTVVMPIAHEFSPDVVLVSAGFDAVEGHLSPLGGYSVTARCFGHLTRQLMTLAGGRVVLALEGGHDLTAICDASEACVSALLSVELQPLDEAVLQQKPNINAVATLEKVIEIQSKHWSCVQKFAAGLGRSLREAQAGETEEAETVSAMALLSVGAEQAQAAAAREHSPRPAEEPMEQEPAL

[14] = target: T6, Histone deacetylase 7 (Homo sapiens) (UniProt Q8WUI4); assay: Inhibition of human recombinant HDAC7 using Ac-Leu-Gly-Lys (Tfa)-AMC substrate incubated for 30 mins by fluorescence assay
T6 sequence (whole entry): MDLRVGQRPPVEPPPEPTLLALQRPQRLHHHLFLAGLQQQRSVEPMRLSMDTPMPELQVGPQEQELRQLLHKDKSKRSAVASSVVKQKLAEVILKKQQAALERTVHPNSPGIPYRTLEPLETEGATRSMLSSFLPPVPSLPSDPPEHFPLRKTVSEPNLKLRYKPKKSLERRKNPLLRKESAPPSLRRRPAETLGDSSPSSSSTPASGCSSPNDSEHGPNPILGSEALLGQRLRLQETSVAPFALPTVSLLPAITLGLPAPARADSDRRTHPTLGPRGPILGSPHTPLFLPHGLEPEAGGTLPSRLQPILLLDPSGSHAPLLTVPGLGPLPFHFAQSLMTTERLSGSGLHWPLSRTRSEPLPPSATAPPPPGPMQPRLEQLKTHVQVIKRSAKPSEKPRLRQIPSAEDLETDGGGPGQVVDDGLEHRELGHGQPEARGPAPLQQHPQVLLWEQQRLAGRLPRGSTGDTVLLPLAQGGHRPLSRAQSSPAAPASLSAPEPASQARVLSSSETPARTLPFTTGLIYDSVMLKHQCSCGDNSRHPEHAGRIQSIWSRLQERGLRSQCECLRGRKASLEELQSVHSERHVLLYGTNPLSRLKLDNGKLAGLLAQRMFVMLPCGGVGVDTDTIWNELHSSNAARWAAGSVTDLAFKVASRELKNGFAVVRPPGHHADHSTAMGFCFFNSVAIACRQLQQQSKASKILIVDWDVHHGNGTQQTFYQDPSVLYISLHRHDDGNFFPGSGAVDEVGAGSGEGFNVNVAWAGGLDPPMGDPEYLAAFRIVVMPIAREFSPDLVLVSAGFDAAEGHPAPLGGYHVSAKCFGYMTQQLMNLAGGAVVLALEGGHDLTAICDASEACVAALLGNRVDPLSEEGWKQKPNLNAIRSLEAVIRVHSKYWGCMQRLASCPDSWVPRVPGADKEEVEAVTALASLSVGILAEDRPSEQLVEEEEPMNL

Row | Structure (SMILES) | inhibition [1] | GI50 [2] [nM] | Ki [3] [nM] | Ki [4] [nM] | Ki [5] [nM] | Ki [6] [nM] | Ki [7] [nM] | Ki [8] [nM] | inhibition [9] | inhibition [10] | inhibition [11] | inhibition [12] | inhibition [13] | inhibition [14]
1 | CC(C)[C@H]1NC(=O)[C@@H](C)[C@@H](C/C=C\CCC(N)=O)NC(=O)[C@@H](Cc2ccc(O)cc2)NC(=O)[C@@H](C)NC1=O [AZUMAMIDE B] | inactive | > 50000 |  |  |  |  |  |  |  |  |  |  |  | 
2 | CC(C)[C@H]1NC(=O)[C@@H](C)[C@@H](C/C=C\CCC(=O)O)NC(=O)[C@@H](Cc2ccc(O)cc2)NC(=O)[C@@H](C)NC1=O [AZUMAMIDE C] | inactive | > 25000 | 60 | 9.67 | 10 | 20 | 18 | 20 |  |  |  |  |  | 
3 | CCC[C@H]1NC(=O)[C@@H](Cc2ccc(O)cc2)NC(=O)[C@@H](C)NC(=O)[C@@H](C(C)C)NC(=O)[C@H]1C | inactive | > 50000 | 6000 | 780 | 1400 | 4000 | 3000 | 2400 | inactive | inactive | inactive | inactive | inactive | inactive
4 | CCC(=O)CCCCC[C@@H]1NC(=O)[C@H]2CCCCN2C(=O)[C@H]([C@@H](C)CC)NC(=O)[C@H](Cc2cn(OC)c3ccccc23)NC1=O [APICIDIN] | Active | 800 |  |  |  |  |  |  |  |  |  |  |  | 
